From article PMC11212140, “Molecular Bidents with Two Electrophilic Warheads as a New Pharmacological Modality” (ACS Central Science, 2024)

How the values were obtained:
[1] = Glutathione (GSH) reactivity; format: in vitro ADME; conditions: glutathione (GSH) in buffer; read-out: half-life of conjugation with glutathione (GSH)
Description: Table S3. Glutathione (GSH) reactivity of ZNL-0056
*NGSH1440: the abbreviation of no glutathione. No glutathione is added into NGSH sample
(replaced by buffer) during the 24 hour-incubation R2 is the correlation coefficient of the linear
regression for the determination of kinetic constant.
(1 picture or pasted object on this page, not shown here)

CK2a1 = tested on: T1, CK2a1; experiment: KiNativ profiling in H3255 cells; format: cell-based, human; conditions: 2.5 µM; Protein Kinase Domain; GGPNIITLADIVKDPVSR
T1 construct: purchased ActivX Biosciences (KiNativ)
Method in brief: (§1)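 Frozen cell pellets were analysed by KiNativ (ActivX). Before freezing, H3255 cells had been incubated two hours with ZNL-0056 at 2.5 μM or with DMSO, rinsed in cold PBS, and spun down at 1350 g.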

ZAK = tested on: T2, ZAK; experiment: KiNativ profiling in H3255 cells; format: cell-based, human; conditions: 2.5 µM; Lys1; WISQDKEVAVKK
T2 construct: purchased ActivX Biosciences (KiNativ)
Method in brief: as §1

CK1d, CK1e = experiment: KiNativ profiling in H3255 cells; format: cell-based, human; conditions: 2.5 µM; Lys2; DVKPDNFLMGLGKK
Method in brief: as §1

eEF2K = tested on: T3, eEF2K; experiment: KiNativ profiling in H3255 cells; format: cell-based, human; conditions: 2.5 µM; ATP; YIKYNSNSGFVR
T3 construct: purchased ActivX Biosciences (KiNativ)
Method in brief: as §1

PFTAIRE1 = tested on: T4, PFTAIRE1; experiment: KiNativ profiling in H3255 cells; format: cell-based, human; conditions: 2.5 µM; Lys1; LVALKVIR
T4 construct: purchased ActivX Biosciences (KiNativ)
Method in brief: as §1

TAK1 = tested on: T5, TAK1; experiment: KiNativ profiling in H3255 cells; format: cell-based, human; conditions: 2.5 µM; Lys2; DLKPPNLLLVAGGTVLK
T5 construct: purchased ActivX Biosciences (KiNativ)
Method in brief: as §1

[2] = tested on: RSK1 domain1, RSK2 domain1, RSK3 domain1; experiment: KiNativ profiling in H3255 cells; format: cell-based, human; conditions: 2.5 µM; Lys2; DLKPENILLDEEGHIK
Method in brief: as §1

MAP3K15, MAP3K5, MAP3K6 = experiment: KiNativ profiling in H3255 cells; format: cell-based, human; conditions: 2.5 µM; Lys1; IAIKEIPER
Method in brief: as §1

LOK = tested on: T6, LOK; experiment: KiNativ profiling in H3255 cells; format: cell-based, human; conditions: 2.5 µM; Lys2; DLKAGNVLMTLEGDIR
T6 construct: purchased ActivX Biosciences (KiNativ)
Method in brief: as §1

CK1g1 = tested on: T7, CK1g1; experiment: KiNativ profiling in H3255 cells; format: cell-based, human; conditions: 2.5 µM; Lys2; DVKPENFLIGR
T7 construct: purchased ActivX Biosciences (KiNativ)
Method in brief: as §1

RSK3 domain1 = tested on: T8, RSK3 domain1; experiment: KiNativ profiling in H3255 cells; format: cell-based, human; conditions: 2.5 µM; Lys2; DLKPENILLDEEGHIKITDFGLSK
T8 construct: RSK3 domain1; purchased ActivX Biosciences (KiNativ)
Method in brief: as §1

MAP4K5 = tested on: T9, MAP4K5; experiment: KiNativ profiling in H3255 cells; format: cell-based, human; conditions: 2.5 µM
T9 construct: purchased ActivX Biosciences (KiNativ)
Method in brief: as §1

BRAF, BRAF V600E = tested on: T10, BRAF, BRAF V600E; experiment: KiNativ profiling in H3255 cells; format: cell-based, human; conditions: 2.5 µM; Lys2; DLKSNNIFLHEDLTVK
T10 construct: purchased ActivX Biosciences (KiNativ)
Method in brief: as §1

SMG1 = tested on: T11, SMG1; experiment: KiNativ profiling in H3255 cells; format: cell-based, human; conditions: 2.5 µM, ATP
T11 construct: purchased ActivX Biosciences (KiNativ)
Method in brief: as §1

SRPK1 = tested on: T12, SRPK1; experiment: KiNativ profiling in H3255 cells; format: cell-based, human; conditions: 2.5 µM; Lys2; IIHTDIKPENILLSVNEQYIR
T12 construct: purchased ActivX Biosciences (KiNativ)
Method in brief: as §1

CDK9 = tested on: T13, CDK9; experiment: KiNativ profiling in H3255 cells; format: cell-based, human; conditions: 2.5 µM
T13 construct: purchased ActivX Biosciences (KiNativ)
Method in brief: as §1

ULK3 = tested on: T14, ULK3; experiment: KiNativ profiling in H3255 cells; format: cell-based, human; conditions: 2.5 µM; Lys1; EVVAIKCVAK
T14 construct: purchased ActivX Biosciences (KiNativ)
Method in brief: as §1

PI4K2B = tested on: T15, PI4K2B; experiment: KiNativ profiling in H3255 cells; format: cell-based, human; conditions: 2.5 µM; ATP; SEEPYGQLNPKWTK
T15 construct: purchased ActivX Biosciences (KiNativ)
Method in brief: as §1

MAP2K3 = tested on: T16, MAP2K3; experiment: KiNativ profiling in H3255 cells; format: cell-based, human; conditions: 2.5 µM
T16 construct: purchased ActivX Biosciences (KiNativ)
Method in brief: as §1

CDC2 = tested on: T17, CDC2; experiment: KiNativ profiling in H3255 cells; format: cell-based, human; conditions: 2.5 µM
T17 construct: purchased ActivX Biosciences (KiNativ)
Method in brief: as §1

MAPKAPK3 = tested on: T18, MAPKAPK3; experiment: KiNativ profiling in H3255 cells; format: cell-based, human; conditions: 2.5 µM; ATP Loop; QVLGLGVNGKVLECFHR
T18 construct: purchased ActivX Biosciences (KiNativ)
Method in brief: as §1

MAP3K2 = tested on: T19, MAP3K2; experiment: KiNativ profiling in H3255 cells; format: cell-based, human; conditions: 2.5 µM; Lys1; ELAVKQVQFDPDSPETSKEVNALECEIQLLK
T19 construct: purchased ActivX Biosciences (KiNativ)
Method in brief: as §1

JAK1 domain1 = tested on: T20, JAK1 domain1; experiment: KiNativ profiling in H3255 cells; format: cell-based, human; conditions: 2.5 µM; Activation Loop; QLASALSYLEDKDLVHGNVCTKNLLLAR
T20 construct: JAK1 domain1; purchased ActivX Biosciences (KiNativ)

[3] = tested on: CaMK2a, CaMK2b, CaMK2d, CaMK2g; experiment: KiNativ profiling in H3255 cells; format: cell-based; conditions: 2.5 µM; Lys2; DLKPENLLLASK
Description: H3255 cells were plated with 6.5x10^6 per condition in fresh media in 15 cm plates and treated the 80% confluency for 2 hours with DMSO or 2.5 μM of ZNL-0056. To harvest cells, plates were washed 3 times with cold PBS, then collected by scraping into 4 mL of cold PBS containing protease and phosphatase inhibitors. Cells were pelleted by centrifugation at 1350 g at 4 ℃ for 5 minutes and immediately frozen in liquid nitrogen. The frozen samples were sent to ActivX Biosciences (La Jolla, CA) for the remainder of the KiNativ profiling experiment4. […]

[4] = Activation Loop, MCDFGISGYLVDSVAKTMDAGCKPYMAPER
[5] = Protein Kinase Domain, KPLFHGDSEIDQLFR

SMILES | half-life [1] [min] | Inhibition (CK2a1) [%] | Inhibition (ZAK) [%] | Inhibition (CK1d, CK1e) [%] | Inhibition (eEF2K) [%] | Inhibition (PFTAIRE1) [%] | Inhibition (TAK1) [%] | Inhibition [2] [%] | Inhibition (MAP3K15, MAP3K5, MAP3K6) [%] | Inhibition (LOK) [%] | Inhibition (CK1g1) [%] | Inhibition (RSK3 domain1) [%] | Inhibition (MAP4K5; Lys1, NVHTGELAAVKIIK) [%] | Inhibition (MAP4K5; Lys2, DIKGANILLTDHGDVK) [%] | Inhibition (BRAF, BRAF V600E) [%] | Inhibition (SMG1; DTVTIHSVGGTITILPTKTKPK) [%] | Inhibition (SMG1; SYPYLFKGLEDLHLDER) [%] | Inhibition (SRPK1) [%] | Inhibition (CDK9; ATP Loop, IGQGTFGEVFKAR) [%] | Inhibition (CDK9; Lys2, DMKAANVLITR) [%] | also measured
C=CC(=O)Nc1cc(Nc2nccc(-c3cn(C)c4ccccc34)n2)c(OC)cc1N(C)CCN(C)C [Osimertinib, osimertinib, reference compound] | 49 | -0.558 | -16.3 | 6.2 | -9.7 | 2.2 | -9.8 | -33.3 | -10.0 | -8.3 | 7.6 | -9.7 | -13.4 | -6.7 | -9.2 | -6.7 | -44.3 | 2.2 | 12.0 | 22.6 | Inhibition (ULK3): -21.6%; Inhibition (PI4K2B): 26.7%; Inhibition (MAP2K3; [4]): -14.4%; Inhibition (MAP2K3; Lys2, DVKPSNVLINK): -14.5%; Inhibition (CDC2; Lys1, TTGQVVAMKK): -1.3%; Inhibition (CDC2; Lys2, DLKPQNLLIDDK): 29.6%; Inhibition (CDC2; [5]): -18.5%; Inhibition (MAPKAPK3): -14.1%; Inhibition (MAP3K2): -20.3%; Inhibition (JAK1 domain1): -25.4%; Inhibition [3]: 3.2%
C=CC(=O)Nc1cc(C(=O)Nc2nc3cccc(C)c3n2[C@@H]2CCCCN(C(=O)C=C)C2)cs1 [ZNL-0056] | 36 | 6.3 | 12.1 | 10.8 | -31.5 | 20.8 | 10.2 | -1.0 | -7.9 | -15.4 | 16.6 | 5.4 | -3.7 | 15.2 | 4.5 | -33.9 | -11.5 | 2.6 | -9.9 | 16.6 | Inhibition (ULK3): -7.8%; Inhibition (PI4K2B): -26.7%; Inhibition (MAP2K3; [4]): 11.1%; Inhibition (MAP2K3; Lys2, DVKPSNVLINK): -14.4%; Inhibition (CDC2; Lys1, TTGQVVAMKK): -18.6%; Inhibition (CDC2; Lys2, DLKPQNLLIDDK): -1.3%; Inhibition (CDC2; [5]): 2.3%; Inhibition (MAPKAPK3): 4.1%; Inhibition (MAP3K2): 12.2%; Inhibition (JAK1 domain1): -24.3%; Inhibition [3]: -8.1%
